Assay results reported in patent publication US20240018132A1, “5-HYDROXY-1,4-NAPHTHALENEDIONE FOR USE IN THE TREATMENT OF CANCER” (GODAVARI BIOREFINERIES LIMITED, priority 2020, published 2024).
pIC50: −log10 of the molar value.

How the values were obtained:
PC3 [1] = experiment: In vitro sphere-forming assay (cancer stem cells), Prostosphere media; conditions: for viability at 0.0025 µM / viability at 0.025 µM / viability at 0.25 µM / viability at 2.5 µM / viability at 25 µM / viability at 250 µM: Homo sapiens, PC-3, read-out: % Viability of spheres (PC3); for 3D sphere count of PC3: Prostosphere media, 2000 cells/well, n = 6 ± S.D
MDAMB231 [2] = experiment: In vitro antiproliferative assay (MTT assay), breast cancer cell line; type: cell-based; conditions: Homo sapiens, MDA-MB-231, 48 h, MTT assay, breast cancer MDAMB231, 48 hrs drug incubation
Procedure: (§1) MTT assay is a simple and sensitive assay where, metabolic reducing activity of the cells is measured. The increase of this activity in time is taken as a parameter of cell growth. If treatment with a drug impairs this increase, the action is a consequence of growth inhibition, cell killing or both. […] All cell lines were cultured in a 37° C. incubator with a 5% CO2 environment. Compounds were dissolved in DMSO with a concentration of 0.1M (stock solution). Cells were seeded into 96-well plates at suitable plating efficiency.
(§2) Following plating efficiencies were standardized for MTT assay:
(§3) In the MTT procedure, the cells were plated in 96 well plates as per predetermined plating efficiency (Table1). The plates were then incubated for 24 hrs in 5% CO2 atmosphere at 37° C. Appropriate concentrations of the drugs were then added to the plate and further incubation was carried out for 48 hrs (in 5% CO2 atmosphere at 37° C.). The assay plate was then centrifuged twice at 3000 rpm for 3 mins and supernatant was then discarded. 100 ul of MTT solution (0.5 mg/ml) was then added to each well of the plate and it was further incubated for 4 hrs (in 5% CO2 atmosphere at 37° C.) Following 4 hr incubation, the plate was then centrifuged twice, and supernatant was aspirated off very carefully. 200 ul of DMSO was then added to each well to solubilize. MTT crystals and mixed well by shaking the plate. XY graph of log percent viability was then plotted against log drug concentration.

MDAMB231 [3] = experiment: In vitro sphere-forming assay (cancer stem cells), Mammosphere media; conditions: for viability at 0.0025 µM / viability at 0.025 µM / viability at 0.25 µM / viability at 2.5 µM / viability at 25 µM / viability at 250 µM: Homo sapiens, MDA-MB-231, read-out: % Viability of spheres (MDAMB231); for 3D sphere count of MDAMB231: Mammosphere media, 2000 cells/well, n = 6 ± S.D
Human lymphocytes = experiment: Lymphocyte assay (MTT on normal cells); type: cell-based; conditions: Lymphocyte; human peripheral blood lymphocytes, MTT procedure
Procedure: Human lymphocytes were isolated from the peripheral blood. A pure population of lymphocytes was obtained based on differential centrifugation, in which diluted defibrinated blood was layered on a solution of sodium diatrizoate and polysucrose (HiSep LSM 1077) and centrifuged at low speeds for 30 mins.
Procedure: The separation of lymphocytes from fresh defibrinated blood was performed by the procedure described below: • 1. Diluted defibrinated fresh blood was overlaid gradually on (HiSeP LSM1077) and centrifuged at low speed for 30 mins. • 2. The lymphocyte layer (the buffy coat) was carefully removed in a new collection tube. • 3. The buffy coat was given another wash, by the diluent buffer Dulbecco's phosphate buffered saline (D.P.B.S) • 4. The supernatant was discarded and the pellet was resuspended in D.P.B.S. • 5. The viability of cells was checked by Haemocytometer. • 6. Cells with purity and viability of more than 95% were taken for the experiment. • 7. Purified lymphocytes were diluted at a concentration of 0.7 million/ml with sterile D.P.B.S and MTT procedure was performed exactly as described earlier.

PC3 [4] = experiment: In vitro antiproliferative assay (MTT assay), prostate cancer cell line; type: cell-based; conditions: Homo sapiens, PC-3, 48 h, MTT assay, prostate cancer PC3, 48 hrs drug incubation
Procedure: as §1, §2, §3

| Structure (SMILES) | viability at 0.0025 µM (PC3 [1]) [%] | viability at 0.025 µM (PC3 [1]) [%] | viability at 0.25 µM (PC3 [1]) [%] | viability at 2.5 µM (PC3 [1]) [%] | viability at 25 µM (PC3 [1]) [%] | 3D sphere count of PC3 (PC3 [1]; drug 0.0025 uM) | 3D sphere count of PC3 (PC3 [1]; drug 0.025 uM) | 3D sphere count of PC3 (PC3 [1]; drug 0.25 uM) | 3D sphere count of PC3 (PC3 [1]; drug 2.5 uM) | 3D sphere count of PC3 (PC3 [1]; drug 25 uM) | pIC50 (MDAMB231 [2]) | viability at 0.025 µM (MDAMB231 [3]) [%] | viability at 0.25 µM (MDAMB231 [3]) [%] | viability at 2.5 µM (MDAMB231 [3]) [%] | viability at 25 µM (MDAMB231 [3]) [%] | 3D sphere count of MDAMB231 (MDAMB231 [3]; drug 0.025 uM) | 3D sphere count of MDAMB231 (MDAMB231 [3]; drug 0.25 uM) | 3D sphere count of MDAMB231 (MDAMB231 [3]; drug 2.5 uM) | 3D sphere count of MDAMB231 (MDAMB231 [3]; drug 25 uM) | pIC50 (PC3 [4]) | other results |
| --- | --- | --- | --- | --- | --- | --- | --- | --- | --- | --- | --- | --- | --- | --- | --- | --- | --- | --- | --- | --- | --- |
| O=C(O)CCCOc1cccc2c1C(=O)C=C(Nc1ccc3c(c1)OCO3)C2=O [Formula 70] | 95 | 67 | 50 | 41 | 31 | 78(±2) | 55(±2) | 41(±3) | 34(±4) | 25(±3) | 5.52 | 74 | 62 | 41 | 24 | 61(±3) | 51(±3) | 34(±3) | 20(±2) | 5.65 | viability at 0.0025 µM (MDAMB231 [3]): 86%; 3D sphere count of MDAMB231 (MDAMB231 [3]; drug 0.0025 uM): 71(±3); pIC50 (Human lymphocytes): 5.27 |
| O=C1C(Oc2ccc3c(c2)OCO3)=CC(=O)c2c(OCCCCN3CCOCC3)cccc21 [Formula 47, 5-(4-morpholinobutoxy)-2-(benzo[d][1,3]dioxol-5-yloxy)naphthalene-1,4-dione] | 77 | 57 | 43 | 28 | 18 | 62(±4) | 46(±4) | 35(±3) | 23(±3) | 15(±3) | 6.01 | 59 | 43 | 27 | 17 | 53(±3) | 39(±3) | 25(±5) | 16(±3) | 6.24 | viability at 0.0025 µM (MDAMB231 [3]): 78%; 3D sphere count of MDAMB231 (MDAMB231 [3]; drug 0.0025 uM): 71(±2) |
| COc1ccc(NC2=CC(=O)c3c(OCCN4CCOCC4)cccc3C2=O)cc1 [Formula 37, 5-(2-morpholinoethoxy)-2-(4-methoxyphenylamino) naphthalene-1,4-dione] | – | 89 | 69 | 56 | 37 | – | 89(±3) | 69(±3) | 56(±4) | 37(±4) | 5.34 | 82 | 66 | 56 | 39 | 82(±4) | 66(±5) | 56(±4) | 39(±3) | 5.35 | viability at 250 µM (PC3 [1]): 20%; 3D sphere count of PC3 (PC3 [1]; drug 250 uM): 20(±4); viability at 250 µM (MDAMB231 [3]): 23%; 3D sphere count of MDAMB231 (MDAMB231 [3]; drug 250 uM): 23(±3) |
| O=C1C(c2ccc3c(c2)OCO3)=CC(=O)c2c(OCCN3CCOCC3)cccc21 [Formula 1, 5-(2-morpholinoethoxy)-2-(benzo[d][1,3]dioxol-6-yl)naphthalene-1,4-dione] | – | 80 | 62 | 45 | 30 | – | 65(±3) | 51(±3) | 37(±3) | 25(±3) | 6.18 | 83 | 62 | 44 | 31 | 64(±5) | 48(±4) | 34(±4) | 24(±4) | 6.24 | viability at 250 µM (PC3 [1]): 16%; 3D sphere count of PC3 (PC3 [1]; drug 250 uM): 13(±3); viability at 250 µM (MDAMB231 [3]): 13%; 3D sphere count of MDAMB231 (MDAMB231 [3]; drug 250 uM): 10(±2); pIC50 (Human lymphocytes): 5.83 |
| O=C1C(Oc2ccc3c(c2)OCO3)=CC(=O)c2c(OCCN3CCOCC3)cccc21 [Formula 46, 5-(2-morpholinoethoxy)-2-(benzo[d][1,3]dioxol-5-yloxy)naphthalene-1,4-dione] | 82 | 67 | 51 | 36 | 22 | 66(±3) | 54(±4) | 41(±3) | 29(±3) | 18(±3) | 5.86 | 60 | 49 | 32 | 20 | 54(±4) | 44(±4) | 29(±3) | 18(±3) | 5.87 | viability at 0.0025 µM (MDAMB231 [3]): 74%; 3D sphere count of MDAMB231 (MDAMB231 [3]; drug 0.0025 uM): 67(±5) |
| O=C1C(c2ccc3c(c2)OCO3)=CC(=O)c2c(OCCCC(=O)N3CCOCC3)cccc21 [Formula 69] | 93 | 65 | 49 | 35 | 21 | 76(±3) | 53(±3) | 40(±2) | 29(±2) | 17(±3) | 5.56 | 70 | 57 | 35 | 19 | 58(±3) | 47(±3) | 29(±3) | 16(±2) | 5.67 | viability at 0.0025 µM (MDAMB231 [3]): 86%; 3D sphere count of MDAMB231 (MDAMB231 [3]; drug 0.0025 uM): 71(±3); pIC50 (Human lymphocytes): 4.92 |
